Assay results taken from PubChem BioAssay AID1996.
≈ marks a conversion by molar mass, not a printed value.

Details: buffer; pH 7.4; 200.0 µM

Question: Which solubility kinetic does the source give for `COCCc1nnc(NC(=O)C(C)C)s1` here?
Answer: The solubility kinetic was greater than 34.4 µg/mL.

Question: Which solubility kinetic does the source give for `O=C(COC(=O)Cc1ccccc1)Nc1cccnc1Cl` here?
Answer: Its solubility kinetic is greater than 45.7 µg/mL.

Question: With `CC(NC(=O)C(=O)NCC1CCCO1)c1ccccc1` (stereo not given) as the compound, how does the solubility kinetic read?
Answer: Its solubility kinetic is greater than 41.5 µg/mL.

Question: With `CSc1ccc(C2Nc3cccc4cccc(c34)N2)cc1` as the compound, how does the solubility kinetic read?
Answer: Its solubility kinetic is 2.4 µg/mL (≈ 8.21 µM).

Question: Which solubility kinetic does the source give for `COc1ccc(C(C)=O)cc1CSc1ccccn1` here?
Answer: Its solubility kinetic is 37.7 µg/mL (≈ 138 µM).

Question: With `O=C(Nc1ccc(N2CCOCC2)cc1N1CCOCC1)c1ccccc1` as the compound, how does the solubility kinetic read?
Answer: Its solubility kinetic is greater than 55.1 µg/mL.

Question: With `CCc1ccccc1N(C(C)=O)c1nc(CCl)cs1` as the compound, how does the solubility kinetic read?
Answer: The solubility kinetic was greater than 44.2 µg/mL.

Question: For `COc1ccccc1CN1CCN(Cc2nc(-c3ccccc3)no2)CC1`, which solubility kinetic is on record?
Answer: Its solubility kinetic is 50.1 µg/mL (≈ 137 µM).

Question: For `Cc1nc2ccc(NS(=O)(=O)c3ccc(F)c(F)c3F)cc2s1`, which solubility kinetic is on record?
Answer: Its solubility kinetic is 50.7 µg/mL (≈ 141 µM).

Question: Which solubility kinetic does the source give for `CCC(C)Nc1nc(N)c([N+](=O)[O-])c(NCc2ccccc2)n1` (stereo not given) here?
Answer: Its solubility kinetic is 3.6 µg/mL (≈ 11.4 µM).

Question: Which solubility kinetic does the source give for `CN1C(=O)C(O)N=C(c2ccccc2)c2ccccc21` (stereo not given) here?
Answer: The solubility kinetic was greater than 39.9 µg/mL.

Question: Which solubility kinetic does the source give for `COc1cc(C(=S)N2CCCC2)cc(OC)c1OC` here?
Answer: The solubility kinetic was greater than 42.2 µg/mL.

Question: With `CCCc1ccc(C(=O)O/N=C(\N)c2ccccn2)cc1` as the compound, how does the solubility kinetic read?
Answer: The solubility kinetic was 3.1 µg/mL (≈ 10.9 µM).

Question: Which solubility kinetic does the source give for `Cn1nc(-c2ccc(Cl)cc2)cc1NC(=O)CC(C)(C)CC(=O)O` here?
Answer: Its solubility kinetic is greater than 52.5 µg/mL.

Question: Which solubility kinetic does the source give for `Cn1c2ccccc2c2nnc(SCCN3CCOCC3)nc21` here?
Answer: The solubility kinetic was greater than 49.4 µg/mL.

Question: With `COC(=O)c1ccc(NC(=O)CN2C(=O)NC3(CCC(C)CC3)C2=O)cc1` (stereo not given) as the compound, how does the solubility kinetic read?
Answer: The solubility kinetic was 10.1 µg/mL (≈ 27 µM).

Question: With `CCCC(=O)O/N=C(\c1ccccc1)c1ccncc1` as the compound, how does the solubility kinetic read?
Answer: Its solubility kinetic is 38.4 µg/mL (≈ 143 µM).

Question: Which solubility kinetic does the source give for `O=C(c1cc2cc(C(F)(F)F)ccc2s1)N1CCOCC1` here?
Answer: The solubility kinetic was greater than 47.3 µg/mL.

Question: For `CCCN1CCC(NC(=S)Nc2ccc([N+](=O)[O-])cc2)CC1`, which solubility kinetic is on record?
Answer: Its solubility kinetic is greater than 48.4 µg/mL.

Question: For `CC(=O)C1=C(O)C(=O)N(c2ccccn2)C1c1ccc(Cl)cc1` (stereo not given), which solubility kinetic is on record?
Answer: The solubility kinetic was 40.9 µg/mL (≈ 124 µM).

Question: For `CC(C)[N+](C)(C)CC#CC(O)(c1ccccc1)c1ccccc1.[Br-]`, which solubility kinetic is on record?
Answer: The solubility kinetic was 51 µg/mL.

Question: With `CC(C)(C)N(Cc1ccccc1)C(=O)c1cc2ccccc2o1` as the compound, how does the solubility kinetic read?
Answer: The solubility kinetic was 1.1 µg/mL (≈ 3.58 µM).

Question: For `CC1CC(C)CN(C(=O)COC(=O)COc2ccc(C#N)cc2)C1` (stereo not given), which solubility kinetic is on record?
Answer: Its solubility kinetic is 43.5 µg/mL (≈ 132 µM).

Question: For `COC(=O)c1nn(-c2cccc(C(F)(F)F)c2)ccc1=O`, which solubility kinetic is on record?
Answer: Its solubility kinetic is greater than 44.7 µg/mL.

Question: For `COc1ccc(-c2nc3cc([N+](=O)[O-])ccc3o2)cc1OC`, which solubility kinetic is on record?
Answer: Its solubility kinetic is less than 0.3 µg/mL.

Question: With `CN(C)/C=N/c1sc2c(c1C(N)=O)CCCC2` as the compound, how does the solubility kinetic read?
Answer: The solubility kinetic was 19.4 µg/mL (≈ 77.2 µM).

Question: Which solubility kinetic does the source give for `Cc1cc(N)ccc1NC(=O)CN1CCOCC1` here?
Answer: The solubility kinetic was greater than 37.4 µg/mL.

Question: With `Cl.NS(=O)(=O)c1ccc(CCNCC#Cc2ccccc2)cc1` as the compound, how does the solubility kinetic read?
Answer: Its solubility kinetic is greater than 52.6 µg/mL.

Question: Which solubility kinetic does the source give for `O=C(NCCC(=O)N1CCc2ccccc21)c1ccccc1Cl` here?
Answer: The solubility kinetic was 32.1 µg/mL (≈ 97.6 µM).

Question: With `O=C(Nc1ccccc1)Nc1ccc(Nc2ccccc2)cc1` as the compound, how does the solubility kinetic read?
Answer: Its solubility kinetic is less than 0.2 µg/mL.

Question: Which solubility kinetic does the source give for `COc1ccc(C(=O)N2CCCN(C)CC2)c(OC)c1` here?
Answer: Its solubility kinetic is 36.5 µg/mL (≈ 131 µM).

Question: For `CCS(=O)(=O)c1ccc(O)c(NC(=O)c2cc(-c3ccccn3)nc3ccccc23)c1`, which solubility kinetic is on record?
Answer: The solubility kinetic was greater than 65 µg/mL.

Question: With `CCCCn1c(=O)[nH]c2c(oc3ccccc32)c1=O` as the compound, how does the solubility kinetic read?
Answer: Its solubility kinetic is 1.7 µg/mL (≈ 6.58 µM).

Question: With `Cl.NCCSC1CC(=O)N(Cc2ccc(F)cc2)C1=O` (stereo not given) as the compound, how does the solubility kinetic read?
Answer: Its solubility kinetic is 37.9 µg/mL.

Question: Which solubility kinetic does the source give for `CN1C(=O)c2ccccc2N(C)C1c1cccc(O)c1` (stereo not given) here?
Answer: The solubility kinetic was 38.1 µg/mL (≈ 142 µM).

Question: For `Cc1ccc(NC(=O)CCl)c(C)c1`, which solubility kinetic is on record?
Answer: The solubility kinetic was greater than 29.7 µg/mL.

Question: Which solubility kinetic does the source give for `O=C(CCC1CCCC1)NCCCNC(=O)CCC1CCCC1` here?
Answer: Its solubility kinetic is 36.2 µg/mL (≈ 112 µM).

Question: For `CC1(C)C2CCC1(C)C(NC(=O)/C=C/c1ccccc1)C2` (stereo not given), which solubility kinetic is on record?
Answer: Its solubility kinetic is 8.9 µg/mL (≈ 31.4 µM).

Question: With `COc1cc2c(cc1OC)C(c1ccccc1C)CC(=O)N2` (stereo not given) as the compound, how does the solubility kinetic read?
Answer: The solubility kinetic was less than 0.6 µg/mL.

Question: With `Cc1ccc(CN(C)c2nc(-c3cccnc3)nc3ccccc23)o1` as the compound, how does the solubility kinetic read?
Answer: The solubility kinetic was 15.5 µg/mL (≈ 46.9 µM).

Question: For `Cc1c(NS(=O)(=O)c2cc(C(=O)N(C)Cc3ccccc3)ccc2Cl)c(=O)n(-c2ccccc2)n1C`, which solubility kinetic is on record?
Answer: Its solubility kinetic is greater than 78.8 µg/mL.

Question: With `Cc1cccc(C)c1NC(=O)CN(C)C(=O)Cn1c(=O)cnc2ccccc21` as the compound, how does the solubility kinetic read?
Answer: Its solubility kinetic is 52.6 µg/mL (≈ 139 µM).

Question: With `COc1ccc(NC(=O)CN2CCc3ccccc3C2)c([N+](=O)[O-])c1` as the compound, how does the solubility kinetic read?
Answer: The solubility kinetic was 1.8 µg/mL (≈ 5.27 µM).

Question: For `CC(=O)c1cccc(NC(=S)N2CCCC2)c1`, which solubility kinetic is on record?
Answer: Its solubility kinetic is greater than 37.3 µg/mL.

Question: With `Cc1ccc(C(=O)NCC(=O)N2CCCCCCC2)cc1` as the compound, how does the solubility kinetic read?
Answer: The solubility kinetic was 42.3 µg/mL (≈ 147 µM).

Question: Which solubility kinetic does the source give for `Cn1c(N)c(C(=O)COC(=O)c2ccccc2C(=O)c2ccc(Cl)cc2)c(=O)n(C)c1=O` here?
Answer: Its solubility kinetic is 6.3 µg/mL (≈ 13.8 µM).

Question: Which solubility kinetic does the source give for `Cn1c(=O)c2c(nc3n2CC(O)CN3c2ccccc2)n(C)c1=O` (stereo not given) here?
Answer: The solubility kinetic was greater than 49.1 µg/mL.

Question: Which solubility kinetic does the source give for `COC(=O)C(C(C)C)N1CCc2c(C)nc3c(C#N)cnn3c21` (stereo not given) here?
Answer: Its solubility kinetic is greater than 47 µg/mL.

Question: Which solubility kinetic does the source give for `CC1CCC(NC(=O)c2cccn2C)CC1` (stereo not given) here?
Answer: The solubility kinetic was greater than 33 µg/mL.

Question: Which solubility kinetic does the source give for `CO/N=C/C=C1/N(C)c2ccccc2C1(C)C` here?
Answer: The solubility kinetic was 19.4 µg/mL (≈ 84.2 µM).

Question: For `COc1cc(C(=O)OCC(=O)NC2CC2)ccc1OCCC(C)C`, which solubility kinetic is on record?
Answer: Its solubility kinetic is 6.8 µg/mL (≈ 20.3 µM).

Question: For `Cc1cccc(C(=O)N2CCCC(c3nc(-c4ccc(C)o4)no3)C2)c1` (stereo not given), which solubility kinetic is on record?
Answer: Its solubility kinetic is 47.7 µg/mL (≈ 136 µM).

Question: With `Cc1cc(C(C)(C)C)cc(C)c1S(=O)(=O)N1CC(=O)Nc2ccccc21` as the compound, how does the solubility kinetic read?
Answer: The solubility kinetic was 5.7 µg/mL (≈ 15.3 µM).

Question: With `COC(=O)c1sccc1NC(=O)NC1CCCCC1` as the compound, how does the solubility kinetic read?
Answer: The solubility kinetic was 23.8 µg/mL (≈ 84.3 µM).

Question: With `CCOC(=O)Cn1cc(C#N)c(=O)[nH]c1=O` as the compound, how does the solubility kinetic read?
Answer: The solubility kinetic was greater than 33.5 µg/mL.

Question: For `CN(c1ccccc1)S(=O)(=O)c1cccc(NC(=O)C2CCCO2)c1` (stereo not given), which solubility kinetic is on record?
Answer: The solubility kinetic was greater than 54.1 µg/mL.

Question: For `Cc1[nH]c2ccccc2c1/C=C(\C#N)C(=O)NC1CC1`, which solubility kinetic is on record?
Answer: The solubility kinetic was 6.8 µg/mL (≈ 25.6 µM).

Question: With `O=CN1CCN(CC(O)Cn2c3ccccc3c3ccccc32)CC1` (stereo not given) as the compound, how does the solubility kinetic read?
Answer: Its solubility kinetic is 43.3 µg/mL (≈ 128 µM).

Question: Which solubility kinetic does the source give for `CCOc1cc(/C=C/C(=O)OCC(=O)NCC2CCCO2)cc(Cl)c1OC` (stereo not given) here?
Answer: The solubility kinetic was 52.7 µg/mL (≈ 132 µM).

Question: For `O=C(NC1CCCC1)C1CC(=O)N(c2ccccc2)C1` (stereo not given), which solubility kinetic is on record?
Answer: Its solubility kinetic is greater than 40.9 µg/mL.
